Patent US20110195900A1, “PEPTIDIC PTH RECEPTOR AGONISTS” (FERRING B.V., priority 2008, published 2011)
Non-standard residues stand in square brackets, D forms with d. Residues, ends and D or L forms follow the SMILES beside them. 1Nal = N[C@@H](Cc1cccc2ccccc12)C(=O)O; β3hI = CC[C@H](C)[C@H](N)CC(=O)O; β3hR = N=C(N)NCCC[C@H](N)CC(=O)O; Nle = CCCC[C@H](N)C(=O)O; β3hA = C[C@H](N)CC(=O)O; Aib = CC(C)(N)C(=O)O

Legend:
human PTH-1 receptor = biological target: T1, human PTH-1 receptor (Homo sapiens, UniProt Q03431); assay: Reporter gene assay (CRE-luciferase) for agonist activity in transiently transfected HEK-293 cells; format: cell-based; conditions: for hPTHR-2/hPTHR-1: Table 3, selectivity for hPTH-1 receptor over hPTH-2 receptor; for hPTHR-2/hPTHR-1 / Selectivity hPTHR-2/hPTHR-1: ratio of EC50 values; for Selectivity hPTHR-2/hPTHR-1: Table 4 comparison data
T1 construct: expressed in transfected cells; host or cells: HEK-293
T1 sequence (Q03431 27-593): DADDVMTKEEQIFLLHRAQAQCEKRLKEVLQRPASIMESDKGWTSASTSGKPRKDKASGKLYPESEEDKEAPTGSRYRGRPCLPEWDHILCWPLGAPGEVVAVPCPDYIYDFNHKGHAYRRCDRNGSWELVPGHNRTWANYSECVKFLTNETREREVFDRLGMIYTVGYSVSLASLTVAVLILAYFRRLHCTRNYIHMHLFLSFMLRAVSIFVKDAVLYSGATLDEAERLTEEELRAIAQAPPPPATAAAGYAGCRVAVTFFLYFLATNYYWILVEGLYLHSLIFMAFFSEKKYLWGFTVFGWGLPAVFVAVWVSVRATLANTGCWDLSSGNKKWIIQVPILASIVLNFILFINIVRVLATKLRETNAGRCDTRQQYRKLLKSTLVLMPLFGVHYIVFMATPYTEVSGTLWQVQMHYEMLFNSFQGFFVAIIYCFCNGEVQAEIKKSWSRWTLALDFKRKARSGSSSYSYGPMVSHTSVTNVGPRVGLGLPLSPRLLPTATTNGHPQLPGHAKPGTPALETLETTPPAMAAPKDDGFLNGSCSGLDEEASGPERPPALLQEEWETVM
Method in brief: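 Selectivity came from luciferase transcriptional reporter assays expressing human PTH-2 receptor. PTH-1 agonism used transiently transfected HEK-293 cells carrying SV40-promoter receptor and cAMP-responsive-element luciferase; 4-5 h compound exposure, lysis, luminescence, non-linear-regression EC50/efficacy; ≥3 independent runs, PTH (1-34) control each.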

human PTH-2 receptor = biological target: T2, human PTH-2 receptor (Homo sapiens, UniProt P49190); assay: Luciferase-based transcriptional reporter gene assay for selectivity; format: cell-based
T2 construct: expressed in transfected cells
Description: Agonist activity of compounds on the human PTH-1 receptor was determined in a reporter gene assay by transiently transfecting HEK-293 cells with plasmids encoding human PTH-1 receptor under control of the SV40 promoter and a luciferase reporter gene under control of cAMP responsive elements (CRE). See Himmler et al, J. Recept. Res. 13 (1993) 79-94, for further guidance on this assay. Transfected cells were exposed to serial dilutions of compounds for 4-5 hours followed by lysis of cells, determination of luciferase activity, and determination of compound efficacies and EC50 values through non-linear regression.
PTH (1-34) was used as an internal control in each experiment and compounds were tested in at least three independent experiments. To determine selectivity, compounds were tested in luciferase-based transcriptional reporter gene assays expressing the human PTH-2 receptor.

T2 sequence (P49190 25-550): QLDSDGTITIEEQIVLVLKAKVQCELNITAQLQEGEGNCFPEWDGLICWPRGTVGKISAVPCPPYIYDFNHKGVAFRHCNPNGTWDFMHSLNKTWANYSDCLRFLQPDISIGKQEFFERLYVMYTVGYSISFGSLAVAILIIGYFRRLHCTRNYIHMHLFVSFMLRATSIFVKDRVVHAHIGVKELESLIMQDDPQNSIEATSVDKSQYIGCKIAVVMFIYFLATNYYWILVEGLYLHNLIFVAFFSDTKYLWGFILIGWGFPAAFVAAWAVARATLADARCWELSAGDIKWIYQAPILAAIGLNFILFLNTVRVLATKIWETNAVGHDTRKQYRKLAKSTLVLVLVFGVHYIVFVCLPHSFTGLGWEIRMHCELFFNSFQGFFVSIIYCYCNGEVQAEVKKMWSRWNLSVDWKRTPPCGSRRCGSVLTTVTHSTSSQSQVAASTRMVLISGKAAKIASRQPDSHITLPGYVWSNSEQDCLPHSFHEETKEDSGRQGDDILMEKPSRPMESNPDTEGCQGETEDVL

Compound CCCC[C@H](NC(=O)[C@H](CC(C)C)NC(=O)[C@H](CCC(N)=O)NC(=O)[C@@H](NC(=O)[C@H](CCC(=O)O)NC(=O)[C@H](CO)NC(=O)[C@@H](NC(=O)[C@@H](N)CO)C(C)C)[C@@H](C)CC)C(=O)N[C@@H](Cc1c[nH]cn1)C(=O)N[C@@H](CC(N)=O)C(=O)N[C@@H](CC(C)C)C(=O)NCC(=O)N[C@@H](CCCCN)C(=O)N[C@@H](Cc1c[nH]cn1)C(=O)N[C@@H](CC(C)C)C(=O)N[C@@H](CCCCN)C(=O)N[C@@H](CO)C(=O)N[C@H](CC(=O)N[C@@H](CCC(=O)O)C(=O)N[C@@H](CCCNC(=N)N)C(=O)N[C@H](C(=O)N[C@@H](CCC(=O)O)C(=O)N[C@@H](Cc1cccc2ccccc12)C(=O)N[C@@H](CC(C)C)C(=O)N[C@@H](CCCNC(=N)N)C(=O)N[C@@H](CCCCN)C(=O)N[C@@H](CC(C)C)C(=O)N[C@@H](CC(C)C)C(=O)N[C@@H](CCC(N)=O)C(=O)N[C@@H](CCCNC(=N)N)C(=O)N[C@H](C(=O)N[C@@H](Cc1c[nH]cn1)C(=O)N[C@@H](CC(N)=O)C(=O)N[C@@H](Cc1ccccc1)C(N)=O)C(C)C)C(C)C)[C@@H](C)CC [SEQ ID NO: 37, [Nle^8, Lys^16, β-hIle^18,1-Nal^23, Leu^27, Arg^30] hPTH (1-34)-NH2] (H-SVSEIQL[Nle]HNLGKHLKS[β3hI]ERVE[1Nal]LRKLLQRVHNF-NH2) has an EC50 (human PTH-1 receptor) of 0.14 nM, a hPTHR-2/hPTHR-1 (human PTH-1 receptor) of 97 and an EC50 (human PTH-2 receptor) of 14 nM.

Work on CCCC[C@H](NC(=O)[C@H](CC(C)C)NC(=O)[C@H](CCC(N)=O)NC(=O)[C@@H](NC(=O)[C@H](CCC(=O)O)NC(=O)[C@H](CO)NC(=O)[C@@H](NC(=O)C(C)(C)N)C(C)C)[C@@H](C)CC)C(=O)N[C@@H](Cc1c[nH]cn1)C(=O)N[C@@H](CC(N)=O)C(=O)N[C@@H](CC(C)C)C(=O)NCC(=O)N[C@@H](CCCCN)C(=O)N[C@@H](Cc1c[nH]cn1)C(=O)N[C@@H](CC(C)C)C(=O)N[C@@H](CCCCN)C(=O)N[C@@H](CO)C(=O)N[C@H](CC(=O)N[C@@H](CCC(=O)O)C(=O)N[C@@H](CCCNC(=N)N)C(=O)N[C@H](C(=O)N[C@@H](CCC(=O)O)C(=O)N[C@@H](Cc1cccc2ccccc12)C(=O)N[C@@H](CC(C)C)C(=O)N[C@@H](CCCNC(=N)N)C(=O)N[C@@H](CCCCN)C(=O)N[C@@H](CC(C)C)C(=O)N[C@@H](CC(C)C)C(=O)N[C@@H](CCC(N)=O)C(=O)N[C@@H](CCCNC(=N)N)C(=O)N[C@H](C(=O)N[C@@H](Cc1c[nH]cn1)C(=O)N[C@@H](CCC(=O)O)C(=O)N[C@@H](Cc1ccccc1)C(N)=O)C(C)C)C(C)C)[C@@H](C)CC [SEQ ID NO: 39, [Aib^1, Nle^8, Lys^16, β-hIle^18,1-Nal^23, Leu^27, Arg^30, Glu^33] hPTH (1-34)-NH2] (H-[Aib]VSEIQL[Nle]HNLGKHLKS[β3hI]ERVE[1Nal]LRKLLQRVHEF-NH2; N-terminus assumed) yielded an EC50 (human PTH-1 receptor) of 0.09 nM, a hPTHR-2/hPTHR-1 (human PTH-1 receptor) of 61 and an EC50 (human PTH-2 receptor) of 6 nM.

For CCCC[C@H](NC(=O)[C@H](CC(C)C)NC(=O)[C@H](CCC(N)=O)NC(=O)[C@@H](NC(=O)[C@H](CCC(=O)O)NC(=O)[C@H](CO)NC(=O)[C@@H](NC(=O)C(C)(C)N)C(C)C)[C@@H](C)CC)C(=O)N[C@@H](Cc1c[nH]cn1)C(=O)N[C@@H](CC(N)=O)C(=O)N[C@@H](CC(C)C)C(=O)NCC(=O)N[C@@H](CCCCN)C(=O)N[C@@H](Cc1c[nH]cn1)C(=O)N[C@@H](CC(C)C)C(=O)N[C@@H](CC(N)=O)C(=O)N[C@@H](CO)C(=O)N[C@@H](CCCNC(=N)N)CC(=O)N[C@@H](CCC(=O)O)C(=O)N[C@@H](CCCNC(=N)N)C(=O)N[C@H](C(=O)N[C@@H](CCC(=O)O)C(=O)N[C@@H](Cc1cccc2ccccc12)C(=O)N[C@@H](CC(C)C)C(=O)N[C@@H](CCCNC(=N)N)C(=O)N[C@@H](CCCCN)C(=O)N[C@@H](CC(C)C)C(=O)N[C@@H](CC(C)C)C(=O)N[C@@H](CCC(N)=O)C(=O)N[C@@H](CC(=O)O)C(=O)N[C@H](C(=O)N[C@@H](Cc1c[nH]cn1)C(=O)N[C@@H](CC(N)=O)C(=O)N[C@@H](Cc1ccccc1)C(N)=O)C(C)C)C(C)C [SEQ ID NO: 43, [Aib^1, Nle^8, β-hArg^18,1-Nal^23, Leu^27] hPTH (1-34)-NH2] (H-[Aib]VSEIQL[Nle]HNLGKHLNS[β3hR]ERVE[1Nal]LRKLLQDVHNF-NH2), the EC50 (human PTH-1 receptor) was 0.05 nM, the hPTHR-2/hPTHR-1 (human PTH-1 receptor) was 312 and the “Selectivity hPTHR-2/hPTHR-1” value (human PTH-1 receptor) was 312. The EC50 (human PTH-2 receptor) was 16 nM.

Compound CCCC[C@H](NC(=O)[C@H](CC(C)C)NC(=O)[C@H](CCC(N)=O)NC(=O)[C@@H](NC(=O)[C@H](CCC(=O)O)NC(=O)[C@H](CO)NC(=O)[C@@H](NC(=O)C(C)(C)N)C(C)C)[C@@H](C)CC)C(=O)N[C@@H](Cc1c[nH]cn1)C(=O)N[C@@H](CO)C(=O)N[C@@H](CC(C)C)C(=O)NCC(=O)N[C@@H](CCCCN)C(=O)N[C@@H](Cc1c[nH]cn1)C(=O)N[C@@H](CC(C)C)C(=O)N[C@@H](CCCCN)C(=O)N[C@@H](CO)C(=O)N[C@H](CC(=O)N[C@@H](CCC(=O)O)C(=O)N[C@@H](CCCNC(=N)N)C(=O)N[C@H](C(=O)N[C@@H](CCC(=O)O)C(=O)N[C@@H](Cc1cccc2ccccc12)C(=O)N[C@@H](CC(C)C)C(=O)N[C@@H](CCCNC(=N)N)C(=O)N[C@@H](CCCCN)C(=O)N[C@@H](CC(C)C)C(=O)N[C@@H](CC(C)C)C(=O)N[C@@H](CCC(N)=O)C(=O)N[C@@H](CCCNC(=N)N)C(=O)N[C@H](C(=O)N[C@@H](Cc1c[nH]cn1)C(=O)N[C@@H](CCC(=O)O)C(=O)N[C@@H](Cc1ccccc1)C(N)=O)C(C)C)C(C)C)[C@@H](C)CC [SEQ ID NO: 38, [Aib^1, Nle^8, Ser^10, Lys^16, β-hIle^18,1-Nal^23, Leu^27, Arg^30, Glu^33] hPTH (1-34)-NH2] (H-[Aib]VSEIQL[Nle]HSLGKHLKS[β3hI]ERVE[1Nal]LRKLLQRVHEF-NH2) has an EC50 (human PTH-1 receptor) of 0.09 nM, a hPTHR-2/hPTHR-1 (human PTH-1 receptor) of 61 and an EC50 (human PTH-2 receptor) of 6 nM.

CCCC[C@H](NC(=O)[C@H](CC(C)C)NC(=O)[C@H](CCC(N)=O)NC(=O)[C@@H](NC(=O)[C@H](CCC(=O)O)NC(=O)[C@H](CO)NC(=O)[C@@H](NC(=O)[C@@H](N)CO)C(C)C)[C@@H](C)CC)C(=O)N[C@@H](Cc1c[nH]cn1)C(=O)N[C@@H](CC(N)=O)C(=O)N[C@@H](CC(C)C)C(=O)NCC(=O)N[C@@H](CCCCN)C(=O)N[C@@H](Cc1c[nH]cn1)C(=O)N[C@@H](CC(C)C)C(=O)N[C@@H](CC(N)=O)C(=O)N[C@@H](CO)C(=O)N[C@H](CC(=O)N[C@@H](CCC(=O)O)C(=O)N[C@@H](CCCNC(=N)N)C(=O)N[C@H](C(=O)N[C@@H](CCC(=O)O)C(=O)N[C@@H](Cc1cccc2ccccc12)C(=O)N[C@@H](CC(C)C)C(=O)N[C@@H](CCCNC(=N)N)C(=O)N[C@@H](CCCCN)C(=O)N[C@@H](CC(C)C)C(=O)N[C@@H](CC(C)C)C(=O)N[C@@H](CCC(N)=O)C(=O)N[C@@H](CC(=O)O)C(=O)N[C@H](C(=O)N[C@@H](Cc1c[nH]cn1)C(=O)N[C@@H](CC(N)=O)C(=O)N[C@@H](CCCCN)C(N)=O)C(C)C)C(C)C)[C@@H](C)CC [SEQ ID NO: 30, [Nle^8, β-hIle^18,1-Nal^23, Leu^27, Lys^34] hPTH (1-34)-NH2] (H-SVSEIQL[Nle]HNLGKHLNS[β3hI]ERVE[1Nal]LRKLLQDVHNK-NH2; N-terminus assumed) was tested, and the EC50 (human PTH-1 receptor) was 0.1 nM, the hPTHR-2/hPTHR-1 (human PTH-1 receptor) was 173 and the EC50 (human PTH-2 receptor) was 17 nM.

CCCC[C@H](NC(=O)[C@H](CC(C)C)NC(=O)[C@H](CCC(N)=O)NC(=O)[C@@H](NC(=O)[C@H](CCC(=O)O)NC(=O)[C@H](CO)NC(=O)[C@@H](NC(=O)[C@@H](N)CO)C(C)C)[C@@H](C)CC)C(=O)N[C@@H](Cc1c[nH]cn1)C(=O)N[C@@H](CC(N)=O)C(=O)N[C@@H](CC(C)C)C(=O)NCC(=O)N[C@@H](CCCCN)C(=O)N[C@@H](Cc1c[nH]cn1)C(=O)N[C@@H](CC(C)C)C(=O)N[C@@H](CC(N)=O)C(=O)N[C@@H](CO)C(=O)N[C@@H](C)CC(=O)N[C@@H](CCC(=O)O)C(=O)N[C@@H](CCCNC(=N)N)C(=O)N[C@H](C(=O)N[C@@H](CCC(=O)O)C(=O)N[C@@H](Cc1cccc2ccccc12)C(=O)N[C@@H](CC(C)C)C(=O)N[C@@H](CCCNC(=N)N)C(=O)N[C@@H](CCCCN)C(=O)N[C@@H](CC(C)C)C(=O)N[C@@H](CC(C)C)C(=O)N[C@@H](CCC(N)=O)C(=O)N[C@@H](CC(=O)O)C(=O)N[C@H](C(=O)N[C@@H](Cc1c[nH]cn1)C(=O)N[C@@H](CC(N)=O)C(=O)N[C@@H](Cc1ccccc1)C(N)=O)C(C)C)C(C)C [SEQ ID NO: 18, [Nle^8, β-hAla^18,1-Nal^23, Leu^27] hPTH (1-34)-NH2] (H-SVSEIQL[Nle]HNLGKHLNS[β3hA]ERVE[1Nal]LRKLLQDVHNF-NH2) was tested, and the EC50 (human PTH-1 receptor) was 0.22 nM, the hPTHR-2/hPTHR-1 (human PTH-1 receptor) was 281 and the “Selectivity hPTHR-2/hPTHR-1” value (human PTH-1 receptor) was 281. For the same compound, the EC50 (human PTH-2 receptor) was 61 nM.
